From ChEMBL document CHEMBL1155111, “Identification of a potent, selective, and orally active leukotriene a4 hydrolase inhibitor with anti-inflammatory activity” (J Med Chem, 2008)
Values after ≈ are worked out from the molar mass of the structure shown. Blank lines part the entries; values can stand above or below the molecule they belong to.

Columns and labels:
[1] = Cmax in rat at 2 mg/kg, iv; assay type: ADME, organism-based; design: dose 2 mg/kg, route intravenous; conditions: in vivo
[2] = AUC (0 to infinity) in rat at 2 mg/kg, iv; assay type: ADME, organism-based; design: time infinity, dose 2 mg/kg, route intravenous; conditions: plasma
[3] = Clearance in rat at 2 mg/kg, iv; assay type: ADME, organism-based; design: dose 2 mg/kg, route intravenous; conditions: in vivo
[4] = Volume of distribution at steady state in rat at 2 mg/kg, iv; assay type: ADME, organism-based; design: dose 2 mg/kg, route intravenous; conditions: in vivo, read-out: Vdss
[5] = Half life in rat plasma at 2 mg/kg, iv; assay type: ADME, organism-based; design: dose 2 mg/kg, route intravenous
[6] = Tmax in rat at 10 mg/kg, po; assay type: ADME, organism-based; design: dose 10 mg/kg, route oral; conditions: in vivo
[7] = Cmax in rat at 10 mg/kg, po; assay type: ADME, organism-based; design: dose 10 mg/kg, route oral; conditions: in vivo
[8] = AUC (0 to infinity) in rat at 10 mg/kg, po; assay type: ADME, organism-based; design: time infinity, dose 10 mg/kg, route oral; conditions: plasma
[9] = Terminal elimination half life in rat plasma at 10 mg/kg, po; assay type: ADME, organism-based; design: dose 10 mg/kg, route oral
[10] = Bioavailability in rat at 10 mg/kg, po; assay type: ADME, organism-based; conditions: in vivo
[11] = Cmax in Beagle dog at 2 mg/kg, iv; assay type: ADME, organism-based, Canis lupus familiaris; design: dose 2 mg/kg, route intravenous; conditions: in vivo
[12] = AUC (0 to infinity) in Beagle dog at 2 mg/kg, iv; assay type: ADME, organism-based, Canis lupus familiaris; design: time infinity, dose 2 mg/kg, route intravenous; conditions: plasma
[13] = Clearance in Beagle dog at 2 mg/kg, iv; assay type: ADME, organism-based, Canis lupus familiaris; design: dose 2 mg/kg, route intravenous; conditions: in vivo
[14] = Volume of distribution at steady state in Beagle dog at 2 mg/kg, iv; assay type: ADME, organism-based, Canis lupus familiaris; design: dose 2 mg/kg, route intravenous; conditions: in vivo, read-out: Vdss
[15] = Half life in Beagle dog plasma at 2 mg/kg, iv; assay type: ADME, organism-based, Canis lupus familiaris; design: dose 2 mg/kg, route intravenous
[16] = Tmax in Beagle dog at 10 mg/kg, po; assay type: ADME, organism-based, Canis lupus familiaris; design: dose 10 mg/kg, route oral; conditions: in vivo
[17] = Cmax in Beagle dog at 10 mg/kg, po; assay type: ADME, organism-based, Canis lupus familiaris; design: dose 10 mg/kg, route oral; conditions: in vivo
[18] = AUC (0 to infinity) in Beagle dog at 10 mg/kg, po; assay type: ADME, organism-based, Canis lupus familiaris; design: time infinity, dose 10 mg/kg, route oral; conditions: plasma
[19] = Half life in Beagle dog plasma at 10 mg/kg, po; assay type: ADME, organism-based, Canis lupus familiaris; design: dose 10 mg/kg, route oral
[20] = Bioavailability in Beagle dog at 10 mg/kg, po; assay type: ADME, organism-based, Canis lupus familiaris; conditions: in vivo
[21] = Solubility at pH 7.4; assay type: physicochemical; conditions: buffer
[22] = Chemical stability assessed as half life of hydrolysis at pH 2; assay type: physicochemical; conditions: buffer
[23] = Chemical stability assessed as half life of hydrolysis at pH 7.4; assay type: physicochemical; conditions: buffer
[24] = Cmax in rat at 3 mg/kg, iv; assay type: ADME, organism-based; design: dose 3 mg/kg, route intravenous; conditions: in vivo
[25] = AUC (0 to infinity) in rat at 3 mg/kg, iv; assay type: ADME, organism-based; design: time infinity, dose 3 mg/kg, route intravenous; conditions: plasma
[26] = Clearance in rat at 3 mg/kg, iv; assay type: ADME, organism-based; design: dose 3 mg/kg, route intravenous; conditions: in vivo
[27] = Volume of distribution at steady state in rat at 3 mg/kg, iv; assay type: ADME, organism-based; design: dose 3 mg/kg, route intravenous; conditions: in vivo, read-out: Vdss
[28] = Half life in rat plasma at 3 mg/kg, iv; assay type: ADME, organism-based; design: dose 3 mg/kg, route intravenous
[29] = Tmax in rat at 30 mg/kg, po; assay type: ADME, organism-based; design: dose 30 mg/kg, route oral; conditions: in vivo
[30] = Cmax in rat at 30 mg/kg, po; assay type: ADME, organism-based; design: dose 30 mg/kg, route oral; conditions: in vivo
[31] = AUC (0 to infinity) in rat at 30 mg/kg, po; assay type: ADME, organism-based; design: time infinity, dose 30 mg/kg, route oral; conditions: plasma
[32] = Terminal elimination half life in rat plasma at 30 mg/kg, po; assay type: ADME, organism-based; design: dose 30 mg/kg, route oral
[33] = Bioavailability in rat at 30 mg/kg, po; assay type: ADME, organism-based; conditions: in vivo
[34] = Cmax in Beagle dog at 3 mg/kg, iv; assay type: ADME, organism-based, Canis lupus familiaris; design: dose 3 mg/kg, route intravenous; conditions: in vivo
[35] = AUC (0 to infinity) in Beagle dog at 3 mg/kg, iv; assay type: ADME, organism-based, Canis lupus familiaris; design: time infinity, dose 3 mg/kg, route intravenous; conditions: plasma
[36] = Clearance in Beagle dog at 3 mg/kg, iv; assay type: ADME, organism-based, Canis lupus familiaris; design: dose 3 mg/kg, route intravenous; conditions: in vivo
[37] = Volume of distribution at steady state in Beagle dog at 3 mg/kg, iv; assay type: ADME, organism-based, Canis lupus familiaris; design: dose 3 mg/kg, route intravenous; conditions: in vivo, read-out: Vdss
[38] = Half life in Beagle dog plasma at 3 mg/kg, iv; assay type: ADME, organism-based, Canis lupus familiaris; design: dose 3 mg/kg, route intravenous
[39] = Tmax in Beagle dog at 30 mg/kg, po; assay type: ADME, organism-based, Canis lupus familiaris; design: dose 30 mg/kg, route oral; conditions: in vivo
[40] = Cmax in Beagle dog at 30 mg/kg, po; assay type: ADME, organism-based, Canis lupus familiaris; design: dose 30 mg/kg, route oral; conditions: in vivo
[41] = AUC (0 to infinity) in Beagle dog at 30 mg/kg, po; assay type: ADME, organism-based, Canis lupus familiaris; design: time infinity, dose 30 mg/kg, route oral; conditions: plasma
[42] = Half life in Beagle dog plasma at 30 mg/kg, po; assay type: ADME, organism-based, Canis lupus familiaris; design: dose 30 mg/kg, route oral
[43] = Bioavailability in Beagle dog at 30 mg/kg, po; assay type: ADME, organism-based, Canis lupus familiaris; conditions: in vivo
[44] = Metabolic stability in human liver microsomes assessed as elimination half life; assay type: ADME, Microsome
[45] = Metabolic stability in rat liver S9 fraction assessed as elimination half life; assay type: ADME, subcellular
[46] = Metabolic stability in mouse liver S9 fraction assessed as elimination half life; assay type: ADME, subcellular
[47] = Metabolic stability in dog liver S9 fraction assessed as elimination half life; assay type: ADME, subcellular, Canis lupus familiaris

Cmax [1]: 2200 nM | AUC(0-inf) [2]: 10 µM·h | clearance [3]: 3 mL/min | Vd [4]: 2.5 L/kg | half-life [5]: 3.5 h | Tmax [6]: 5.3 h | Cmax [7]: 2200 nM | AUC(0-inf) [8]: 33 µM·h | half-life [9]: 5.6 h | bioavailability [10]: 65% | Cmax [11]: 2800 nM | AUC(0-inf) [12]: 8 µM·h | clearance [13]: 93.3 mL/min | Vd [14]: 3.2 L/kg | half-life [15]: 3.6 h | Tmax [16]: 1 h | Cmax [17]: 26000 nM | AUC(0-inf) [18]: 60.3 µM·h | half-life [19]: 6.9 h | bioavailability [20]: 150%
SMILES: O=C(CO)NC1CCN(Cc2ccc(Oc3nc4ccccc4s3)cc2)CC1

solubility [21]: 160 µg/mL (≈ 473 µM) | half-life [22]: 1.5 h | half-life [23]: > 16.7 h | Cmax [24]: 3800 nM | AUC(0-inf) [25]: 4.8 µM·h | clearance [26]: 9.5 mL/min | Vd [27]: 7 L/kg | half-life [28]: 2.6 h | Tmax [29]: 4.6 h | Cmax [30]: 1100 nM | AUC(0-inf) [31]: 15 µM·h | half-life [32]: 5.2 h | bioavailability [33]: 31% | Cmax [34]: 4500 nM | AUC(0-inf) [35]: 3.9 µM·h | clearance [36]: 13 mL/min | Vd [37]: 3.2 L/kg | half-life [38]: 1 h | Tmax [39]: 2.3 h | Cmax [40]: 1200 nM | AUC(0-inf) [41]: 4.2 µM·h | half-life [42]: 2.3 h | bioavailability [43]: 11% | half-life [44]: > 1.67 h | half-life [45]: > 1.67 h | half-life [46]: 0.667 h | half-life [47]: 0.9 h
SMILES: c1ccc2oc(Oc3ccc(OCCN4CCCCC4)cc3)nc2c1
